Results on eight compounds are retold here after patent publication US8980848B2, “Flavonoid dimers and their use” (The Hong Kong Polytechnic University, priority 2010, dated 2015).

Like-named read-outs stand apart in the source and are kept apart here.

Series [1] concerns Ld39 promastigotes (SSG-resistant). The experiment in a line: In vitro anti-promastigote activity, Ld39. It counts as cell-based, Leishmania donovani. The settings on record: 3 days at 27° C., MTS; read-out: Anti-promastigotes activity (IC50, μM) Ld39. The method, boiled down:
(§1)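 L. donovani (LdAG83 wild type, SSG-resistant Ld39) and L. major Lm50122 promastigotes were seeded at 1×10^5 per well with a concentration series of compound.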

The test system of series [2] is LCC6, LCC6MDR and L929 cell lines. The experiment in a line: Cytotoxicity over LCC6, LCC6MDR and L929 cell lines. It counts as cell-based, human, mouse. As for the experimental part: (b) Tumor Cell Line Cytotoxicity. The tumor cytotoxicity assays of flavonoid dimers were performed against LCC6, LCC6MDR and L929 cell lines. The cells were grown in supplemented DMEM media in an atmosphere of 95% air and 5% CO2 at 37° C. In brief, LCC6, LCC6MDR and L929 cells were seeded into 96-well flat bottom microtiter plate at 1×10^4 cells per well in a final volume of 100 μL media, respectively. A graded dose of flavonoid dimers was added into wells. The plate was incubated at 37° C. for 72 hrs at the atmosphere 5% CO2 in the air. The % of survivors was determined.

For a further series, the system named is Lm50122 promastigotes. The experiment in a line: In vitro anti-promastigote activity, Lm50122. The class given is cell-based, Leishmania major. The settings on record: 3 days at 27° C., MTS; read-out: Anti-promastigotes activity (IC50, μM) Lm50122. The method, boiled down: as §1
The next series concerns LCC6MDR cells. The experiment in a line: Tumor cell line cytotoxicity of flavonoid dimers, LCC6MDR. It counts as cell-based, human. The settings on record: IC50 of compound alone, 72 hrs. The method, boiled down:
(§2)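 LCC6, LCC6MDR and L929 cells seeded at 1×10^4 cells/well and exposed to graded doses of flavonoid dimers. Incubation 72 hrs at 37° C., 5% CO2. Read-out: % survivors.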

The test system of series [3] is LdAG83 promastigotes (wild type). The experiment in a line: In vitro anti-promastigote activity, LdAG83. It counts as cell-based, Leishmania donovani. The settings on record: 3 days at 27° C., MTS; read-out: Anti-promastigotes activity (IC50, μM) LdAG83. In outline:
as §1

The test system of a further series is L929 cells. The experiment in a line: Cytotoxicity of flavonoid dimers, L929 mouse fibroblast. The class given is cell-based. In outline:
as §2

Series [4] deals with LCC6 cells. The experiment in a line: Tumor cell line cytotoxicity of flavonoid dimers, LCC6. It counts as cell-based, human. The settings on record: IC50 of compound alone, 72 hrs. In outline: as §2
In series [5] the target is T1, Pgp (LCC6MDR cells) (Homo sapiens, UniProt P08183). The experiment in a line: Cell proliferation assay: Pgp-modulating activity, reversal of anticancer drug resistance in LCC6MDR cells. To be noted: for RF (Relative Fold), cpd at 0.5 μM: RF = (IC50 without modulator)/(IC50 with 0.5 μM modulator); for RF (Relative Fold), cpd at 0.5 μM / RF (Relative Fold), cpd at 1 μM: paclitaxel, LCC6MDR; for RF (Relative Fold), cpd at 1 μM: RF = (IC50 without modulator)/(IC50 with 1.0 μM modulator).
Description: (§3) Cell Proliferation Assay. 6,000 cells of LCC6 or LCC6MDR and anticancer drugs (paclitaxel, vinblastine, vincristine, doxorubicin and mitoxantrone) were mixed with or without modulators to a final volume of 200 μL in each well of 96-well plates. […] The plates were then incubated for 5 days at 37° C. […] IC50 values were calculated from the dose-response curves of MTS assays (Prism 4.0).

Another series concerns Raw264.7 cells. The experiment in a line: Cytotoxicity, mouse macrophage Raw264.7. The class given is cell-based. The settings on record: 72 hrs. The method, boiled down: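 Raw264.7 (1×10^4 cells/well) and primary PEM cells (2×10^4 cells/well) in supplemented DMEM received graded compound doses and were incubated 72 h at 37 °C, 5% CO2. Percent survivors determined; cytotoxicity IC50 used for therapeutic index against antileishmanial IC50.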

Series [6] concerns LCC6 cells. The experiment in a line: Doxorubicin accumulation in LCC6 cells. The class given is cell-based, human. The settings on record: 1 μM. From the text:
Doxorubycin accumulation. […] […].

The target of series [7] is T1, Pgp (LCC6MDR cells).
Description: as §3

T1 sequence (P08183 whole entry): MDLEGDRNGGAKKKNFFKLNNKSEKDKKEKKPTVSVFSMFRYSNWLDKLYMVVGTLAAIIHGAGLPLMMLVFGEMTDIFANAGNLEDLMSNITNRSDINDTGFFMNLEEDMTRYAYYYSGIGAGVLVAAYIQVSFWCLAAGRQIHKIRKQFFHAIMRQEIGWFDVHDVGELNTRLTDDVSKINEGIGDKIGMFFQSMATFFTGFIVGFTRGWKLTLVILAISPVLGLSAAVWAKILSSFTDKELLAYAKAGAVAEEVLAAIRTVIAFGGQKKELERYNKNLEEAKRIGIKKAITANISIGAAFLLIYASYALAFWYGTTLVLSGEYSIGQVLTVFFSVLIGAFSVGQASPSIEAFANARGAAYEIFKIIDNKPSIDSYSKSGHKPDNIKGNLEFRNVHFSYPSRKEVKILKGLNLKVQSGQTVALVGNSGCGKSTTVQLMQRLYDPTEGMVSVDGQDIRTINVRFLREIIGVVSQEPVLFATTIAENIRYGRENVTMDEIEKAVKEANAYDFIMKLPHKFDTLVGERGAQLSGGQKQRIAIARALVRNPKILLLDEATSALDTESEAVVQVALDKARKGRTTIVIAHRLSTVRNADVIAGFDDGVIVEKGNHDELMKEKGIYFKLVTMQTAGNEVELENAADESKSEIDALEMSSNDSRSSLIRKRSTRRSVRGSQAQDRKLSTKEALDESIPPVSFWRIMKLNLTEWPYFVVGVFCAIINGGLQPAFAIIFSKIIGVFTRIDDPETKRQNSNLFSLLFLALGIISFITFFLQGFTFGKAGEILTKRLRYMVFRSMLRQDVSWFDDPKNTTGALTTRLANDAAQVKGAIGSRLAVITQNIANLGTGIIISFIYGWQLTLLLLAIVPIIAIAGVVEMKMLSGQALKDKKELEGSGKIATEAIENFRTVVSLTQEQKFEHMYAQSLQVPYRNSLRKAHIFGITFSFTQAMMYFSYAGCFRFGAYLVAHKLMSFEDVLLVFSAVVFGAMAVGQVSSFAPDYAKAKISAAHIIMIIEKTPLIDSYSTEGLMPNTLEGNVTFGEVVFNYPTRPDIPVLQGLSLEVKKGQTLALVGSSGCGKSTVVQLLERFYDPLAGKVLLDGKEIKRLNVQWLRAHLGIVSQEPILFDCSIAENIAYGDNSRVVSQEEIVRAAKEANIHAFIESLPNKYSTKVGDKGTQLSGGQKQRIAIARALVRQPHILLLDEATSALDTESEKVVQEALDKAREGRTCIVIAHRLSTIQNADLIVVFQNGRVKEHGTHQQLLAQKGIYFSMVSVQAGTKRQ

For orientation: IC50 means the concentration at which inhibition is half-maximal. Consider `Cc1ccc2oc(-c3ccc(OCCOCCN(CCOCCOc4ccc(-c5cc(=O)c6cc(C)ccc6o5)cc4)C(=O)OC(C)(C)C)cc3)cc(=O)c2c1` [Compound 17c, 1,13-Bis[4′-((6-methyl)-4H-chromen-4-on-2-yl)phenyl]-N-(tert-butyloxycarbonyl)-1,4,10,13-tetraoxa-7-azamidecane], for which the IC50 in series [1] was 100 µM; in [2] it was greater than 100 µM; in the series with Lm50122 promastigotes, greater than 100 µM; with LCC6MDR cells, greater than 100 µM; in [3], 21 µM; in the series on L929 cells, greater than 100 µM. Besides, the half-inhibitory concentration (IC50) in the series with LCC6 cells [4] and in the series on Raw264.7 cells was greater than 100 µM in each case. For the same compound, the “RF (Relative Fold), cpd at 0.5 μM” value at Pgp (LCC6MDR cells) [5] was “(9.6)”. Besides, the “RF (Relative Fold), cpd at 1 μM” value at Pgp (LCC6MDR cells) [5] is “(139.2)”; on Pgp (LCC6MDR cells) [5] (listed as 17), 139.0.

With `O=c1cc(-c2ccc(OCCOCCN(CCO)CCOCCOc3ccc(-c4cc(=O)c5ccccc5o4)cc3)cc2)oc2ccccc12` [Compound 14, 1,13-Bis[4′-(4H-chromen-4-on-2-yl)phenyl]-N-(2-hydroxyethyl)-1,4,10,13-tetraoxa-7-azamidecane], the IC50 in series [1] was 7.2 ± 2.2 µM; in series [2] it was 6.9 to 14.8 µM; with LCC6MDR cells it was 14.8 ± 5.9 µM; in series [3], 3.2 ± 1.1 µM; in the series on L929 cells it was 6.9 ± 1.4 µM; with LCC6 cells [4] it was 10.7 ± 3.3 µM. Moreover, the IC50 with Raw264.7 cells was found to be 6.4 ± 1.5 µM. Besides, at Pgp (LCC6MDR cells) [5], the “RF (Relative Fold), cpd at 0.5 μM” value is “(5.0)”.

Consider `CCOC(=O)CCN(CCOCCOc1ccc(-c2cc(=O)c3ccccc3o2)cc1)CCOCCOc1ccc(-c2cc(=O)c3ccccc3o2)cc1` [Compound 15, 1,13-Bis[4′-(4H-chromen-4-on-2-yl)phenyl]-N-(3-ethoxy-3-oxopropyl)-1,4,10,13-tetraoxa-7-azamidecane], for which the IC50 is 6.6 ± 0.2 µM in series [1]; 13.5 to 17.7 µM in series [2]; 17.7 ± 3.7 µM in the series on LCC6MDR cells; 3.8 ± 0.8 µM in [3]; 18.1 ± 3.4 µM with L929 cells; 13.5 ± 0.5 µM in the series on LCC6 cells [4]. Moreover, on Pgp (LCC6MDR cells) [5], the “RF (Relative Fold), cpd at 0.5 μM” value was “(5.3)”.

Take `COc1ccc(CCN(C)CCCC(C#N)(c2ccc(OC)c(OC)c2)C(C)C)cc1OC` (stereo not drawn) [Verapamil, verapamil, reference compound]: the “Effect on intracellular doxorubicin accumulation in parental LCC6” value in the series on LCC6 cells [6] is reported as “does not increase”.

Take `CC(C)(C)OC(=O)N(CCOCCOc1ccc(-c2cc(=O)c3c(OCc4ccccc4)cccc3o2)cc1)CCOCCOc1ccc(-c2cc(=O)c3c(OCc4ccccc4)cccc3o2)cc1` [Compound 16e, 1,13-Bis[4′-((5-benzyloxy)-4H-chromen-4-on-2-yl)phenyl]-7-(tert-butyloxycarbonyl)-1,4,10,13-tetraoxa-7-azamidecane]: the IC50 in the series on LCC6MDR cells and in the series with LCC6 cells [4] was greater than 100 µM throughout. In addition, the “RF (Relative Fold), cpd at 0.5 μM” value on Pgp (LCC6MDR cells) [7] is listed as “(1.1)”.

Regarding `CC(C)(C)OC(=O)N(CCOCCOc1ccc(-c2oc3ccccc3c(=O)c2OCc2ccccc2)cc1)CCOCCOc1ccc(-c2oc3ccccc3c(=O)c2OCc2ccccc2)cc1` [Compound 16g, 1,13-Bis[4′-((3-benzyloxy)-4H-chromen-4-on-2-yl)phenyl]-7-(tert-butyloxycarbonyl)-1,4,10,13-tetraoxa-7-azamidecane], on Pgp (LCC6MDR cells) [7], the “RF (Relative Fold), cpd at 1 μM” value worked out at 1.2.

Usually EC50 stands for the concentration at which the effect is half-maximal. Low readings indicate a more potent agent, high ones a less potent agent. `CCN(CCOCCOc1ccc(-c2cc(=O)c3ccccc3o2)cc1)CCOCCOc1ccc(-c2cc(=O)c3ccccc3o2)cc1` [Compound 13, 1,13-Bis[4′-(4H-chromen-4-on-2-yl)phenyl]-N-(ethyl)-1,4,10,13-tetraoxa-7-azamidecane]: the IC50 in [1] is 5.5 ± 1.1 µM; in series [2], 6.9 to 17.3 µM; in the series with LCC6MDR cells, 17.3 ± 3.8 µM; in series [3], 3.2 ± 0.8 µM; with L929 cells it was 6.9 ± 2 µM; in the series on LCC6 cells [4], 10.3 ± 2.2 µM. The compound also came in with an IC50 in the series on Raw264.7 cells of 8.3 ± 1 µM. Besides, the Therapeutic index on Pgp (LCC6MDR cells) [5] (IC50 of compounds for L929/EC50 of compounds for lowering paclitaxel drug resistance) is recorded as 34.5. For the same compound, the “RF (Relative Fold), cpd at 0.5 μM” value on Pgp (LCC6MDR cells) [5] is given as “(26.9)”. This compound also yielded an EC50 at Pgp (LCC6MDR cells) [7] of 0.2 µM.

Turning to “1,13-Bis[4′-((5-hydroxy)-4H-chromen-4-on-2-yl)phenyl]-7-(tert-butyloxycarbonyl)-1,4,10,13-tetraoxa-7-azamidecane [Compound 16f]”, the IC50 in the series with LCC6MDR cells, with L929 cells and in the series on LCC6 cells [4] was greater than 100 µM each time. Moreover, the “RF (Relative Fold), cpd at 0.5 μM” value on Pgp (LCC6MDR cells) [7] was “(11.3)”.
